Data as given in US8445461B2, “Pharmaceutical composition for meniere's disease” (Setsuko Takeda, priority 2007, dated 2013).
Values joined by “and” are separate entries in the source; they are usually repeats but may differ in a detail not shown here. Identical values can stand only once. Like-named read-outs stand apart in the source and are kept apart here. Values belong to the compound of their own block, whether it stands above or below them.

Experiments:
[1] = test system: guinea pigs of normal Prayer's reflex; settings: cited from earlier work; for Plasma AVP: continuous subcutaneous administration
[2] = test system: experimental endolymphatic hydrops; assay: Endolymphatic hydrops decompression effect: IR-L, IR-S and regression lines in the operated ear; assay type: in vivo, guinea pigs; settings: active agent 2.8 g/kg oral, alone or with additive; for Regression line IR-S vs IR-L: Y-intercept / Regression line IR-S vs IR-L: slope: operated ears, 3 hours after; for IR-L (%) increase ratio of the length of Reissner's membrane / IR-S (%) increase ratio of the cross-sectional area of the scala media: operated side, perfusion 3 hours after
Method: The endolymphatic hydrops-decompression effect of saccharides or sugar alcohols was evaluated by assaying as below in triplicate. Firstly, guinea pigs received the surgical obliteration of the endolymphatic sac in the left ear to prepare “experimental model animals with endolymphatic hydrops”. The surgical obliteration of the endolymphatic sac was carried out by burning the extraskeletal portion in the endolymphatic sac with a bipolar electrocoagulator. An endolymphatic sac plays an important role in the absorption of endolymphatic fluid. The inhibition of absorption of endolymphatic fluid was caused by burning the endolymphatic sac to prepare an experimental endolymphatic hydrops. Those hydrops are progressively formed. The size of hydrops becomes constant 2 weeks to month after the surgery and maintained for several months. In detail, see Non-patent Reference 8 for the surgery.
After 1 month, they were divided into 3 groups: Group 2-1 (groups 1-6), 60 animals; Group 2-2 (groups 7-10), 40 animals; and Group 2-3 (groups 11-20), […]. The animals in Group 2-1 received saccharides or sugar alcohols alone (Reference Example 5). The animals in Group 2-2 orally received saccharides or sugar alcohols added polysaccharides. The animals in Group 2-3 received other combinations of saccharides or sugar alcohols added polysaccharides. Animals were sacrificed after the oral administration and the observation and the assessment the gastrointestinal condition, and observed the morphological change of the cochlea mainly in the operated side (left side), in particular of the endolymphatic hydrops decompression effect.
I were obtained left sides of the temporal bones immediately following fixation and kept them in 10% formalin solution for 10 days or more. They were decalcified with 5% trichloroacetic acid and dehydrated with alcohol in increasing concentration, then embedded in paraffin and celloidin. The prepared blocks were cut serially in the horizontal plane. The mid-modiolar sections were stained in hematoxylin and eosin and studied under a light microscope. For the quantitative assessment of changes of the endolymphatic space, the change ratios of the length of Reissner's membrane and the cross-sectional area of the scala media in each turn were measured from the mid-modiolar sections of the cochlea.
From these parameters, the increase ratios (%) of the length of Reissner's membrane (IR-L) and the cross-sectional area (%) of the scala media (IR-S) of a total of four turns were calculated according to the equation as described below:
The increase ratio of the length of Reissner's membrane (IR-L)=100×Σ(Lx−L*x)/ΣL*x (x: first, second, third and fourth turns)
The increase ratio of the cross-section area of the scala media (IR-S)=100×Σ(Sx−S*x)/ΣS*x (x: first, second, third and fourth turns)
Since almost no difference is shown in the regression lines of each group, it cannot be understood that there is the decompression effect of erythritol alone. When endolymphatic hydrops is formed, the cross-sectional area of scala media and the length of Reissner's membrane will increase. It can be assumed from FIG. 1 that there is statistically a primary correlation between both of them in the operated side in the control group. The regression lines are; IR-S (distilled water)=4.011+1.212*IR-L (distilled water); R2=0.987, IR-S (1 hour after)=5.409+1.1*IR-L (1 hour after); R2=0.903, IR-S (2 hours after)=1.125+0.992*IR-L (2 hours after); R2=0.98, IR-S (3 hours after)=2.407+1.309*IR-L (3 hours after); R2=0.974, IR-S (6 hours after)=7.36+1.147*IR-L (6 hours after); R2=0.895, IR-S (12 hours after)=8.089+1.152*IR-L (12 hours after); R2=0.918.
The difference of decompression effect on endolymphatic hydrops depending on dose of pectin added and time-course of the decompression effect can hardly determined by comparing and analyzing the average and standard deviation of IR-L and IR-S in the operated side in each groups. […]

endolymphatic space = settings: cited from earlier work; for Morphological change in the normal ear: glycerol 2.8 g/kg oral
[3] = test system: guinea pigs excreting normal feces; assay: Antidiarrheal effect: observation of feces after oral administration of saccharides or sugar alcohols with or without polysaccharides (Example 1); assay type: in vivo
Method: The criteria for analyzing the conditions of feces (hardness, shape and spaces of feces in the intestine) are as shown in Table 2:
The hardness and microscopic findings of feces from the group administered with distilled water were assessed as “Normal” scoring 3, the feces having normal shape and the shape could rather easily change by pushing with fingers were assessed as “Slightly soft” scoring 2, those of which the shape had already changed or it could quite easily change by pushed with fingers were assessed as “Soft” scoring 1, and those of which the shape is muddy or watery or of no shape were assessed “Muddy” scoring 0. To be precese, there are no watery feces because of the nature of diets and thus the muddy feces correspond to watery and muddy feces in human.
Since the muddy feces comprise large content of water, they induce the high abdominal pressure and the flatulence and distension. […] In the case of gas generation, it appears that noxious symptom such as the flatulence and distension are synergistically deteriorated. Therefore, we assessed not only based on the hardness of feces, but also the size, smoothness of the surface and amount of feces.
In these experiments, I observed is the diarrhea caused by saccharides or sugar alcohols and antidiarrhreal effect of saccharides. Guinea pigs orally received saccharides or sugar alcohols, for example tetrose such as erythritol, pentose such as xylitol or xylose, hexose such as isosorbitol or the like in combination with or without polysaccharides for observation of the feces up to 6 hours after the administration.
Guinea pigs (body weight 280 to 320 g, normal feces) were divided into four groups: for Group 1-a, xylitol alone (Reference Example 1), or xylitol and xanthan gum or pectin; for Group 1-b, xylose alone (Reference Example 2), xylose and xanthan gum or pectin; for Group 1-c, erythritol alone (Reference Example 3), erythritol and pectin, erythritol and xanthan gum, or erythritol, pectin and natural aluminum silicate gel or calcium carbonate; and for Group 1-d, isosorbitol alone (Reference Example 4), or isosorbitol and xanthan gum or pectin were orally administered, respectively. The compounds are dissolved in distilled water and 8 ml/kg of said solution were administered as a single dose.
The feces were observed during 6 hours after the administration. When the animals fell into the most serious condition, the hardness and shape of the feces from said animals were assessed as the effect by saccharides or sugar alcohols in the animals.

guinea pigs = assay: Reference Example 7: erythritol or isosorbitol added jelly, conditions of feces and gastrointestinal tract; assay type: in vivo
Description: As described hereinbefore, erythritol or isosorbitol as saccharides or sugar alcohols added jelly as a thickner were orally administered to 10 guinea pigs (280 to 350 g body weight) as shown in Table 41. The conditions of feces were observed.

[4] = active agent 1.4 g/kg oral, within 6 hours
[5] = active agent 2.1 g/kg oral, within 6 hours
[6] = active agent 2.8 g/kg oral, alone or with additive of the label
[7] = active agent 2.8 g/kg oral, alone or with additives of the label, most serious condition within 6 hours
[8] = active agent 3.5 g/kg oral, alone or with additive of the label, within 6 hours
[9] = active agent 5.6 g/kg oral, alone or with additive of the label, within 6 hours
[10] = agent 2.8 g/kg oral + Jelly 0.1 g/kg, 5 animals
[11] = agent 2.8 g/kg oral + Jelly 0.25 g/kg, 5 animals
[12] = agent 2.8 g/kg oral, no additive dosage (agent alone)

Structure (SMILES): NC(=O)CC[C@@H]1NC(=O)[C@H](Cc2ccccc2)NC(=O)[C@H](Cc2ccc(O)cc2)NC(=O)[C@@H](N)CSSC[C@@H](C(=O)N2CCC[C@H]2C(=O)N[C@@H](CCCN=C(N)N)C(=O)NCC(N)=O)NC(=O)[C@H](CC(N)=O)NC1=O [AVP, arginine vasopressin]
Plasma AVP ([1]; AVP 0.2 mU/kg/min): 2.2 ± 0.4 pg/mL
Increase ratio (%) of the cross-sectional area of the scala media ([1]; AVP 0.2 mU/kg/min): 4.4 ± 0.7%
Plasma AVP ([1]; AVP 0.4 mU/kg/min): 3.5 ± 1.8 pg/mL
Increase ratio (%) of the cross-sectional area of the scala media ([1]; AVP 0.4 mU/kg/min): 10.4 ± 1.8%
Plasma AVP ([1]; AVP 1.0 mU/kg/min): 14.0 ± 3.9 pg/mL
Increase ratio (%) of the cross-sectional area of the scala media ([1]; AVP 1.0 mU/kg/min): 17.4 ± 7.9%
Formation of endolymphatic hydrops ([1]; AVP 1 mU/kg/minute, continuous, mini-pump subcutaneously): apparently produced endolymphatic hydrops

Structure (SMILES): OCC(O)CO [Gly alone, glycerol]
Regression line IR-S vs IR-L: Y-intercept [2]: −2.455
Regression line IR-S vs IR-L: slope [2]: 0.887
IR-L (%) increase ratio of the length of Reissner's membrane [2]: 37.4 ± 31.2%
IR-S (%) increase ratio of the cross-sectional area of the scala media [2]: 31.0 ± 27.5%
Morphological change in the normal ear (endolymphatic space; 2 hours after): collapse
Morphological change in the normal ear (endolymphatic space; 6 hours after): mild hydrops
Time until exertion of effect after the oral administration (endolymphatic space): about 2 hours

Hardness of feces: Muddy (number of animals) [3, 4]: 0
Hardness of feces: Normal (number of animals) [3, 4]: 3
Hardness of feces: Slightly soft (number of animals) [3, 4]: 1
Hardness of feces: Soft (number of animals) [3, 4]: 0
Hardness of feces: Muddy (number of animals) [3, 5]: 0
Hardness of feces: Normal (number of animals) [3, 5]: 0
Hardness of feces: Slightly soft (number of animals) [3, 5]: 2
Hardness of feces: Soft (number of animals) [3, 5]: 2
Time after administration of the peak (most serious) diarrhea [3, 6]: Three to four hours after
Time after administration when diarrhea / softening of feces started [3, 6]: 2 h
Time after administration when feces recovered to (almost) normal [3, 6]: 6 h
Hardness of feces: Muddy (number of animals) [3, 7]: 1
Hardness of feces: Normal (number of animals) [3, 7]: 2
Hardness of feces: Slightly soft (number of animals) [3, 7]: 2
Hardness of feces: Soft (number of animals) [3, 7]: 2
Hardness of feces: Muddy (number of animals) [3, 8]: 3
Hardness of feces: Normal (number of animals) [3, 8]: 0
Hardness of feces: Slightly soft (number of animals) [3, 8]: 0
Hardness of feces: Soft (number of animals) [3, 8]: 1
Hardness of feces: Muddy (number of animals) [3, 9]: 3
Hardness of feces: Normal (number of animals) [3, 9]: 0
Hardness of feces: Slightly soft (number of animals) [3, 9]: 0
Hardness of feces: Soft (number of animals) [3, 9]: 0
Hardness of feces: Muddy (number of animals) (guinea pigs; [10]): 1
Hardness of feces: Normal (number of animals) (guinea pigs; [10]): 2
Hardness of feces: Slightly soft (number of animals) (guinea pigs; [10]): 0
Hardness of feces: Soft (number of animals) (guinea pigs; [10]): 2
Hardness of feces: Muddy (number of animals) (guinea pigs; [11]): 0
Hardness of feces: Normal (number of animals) (guinea pigs; [11]): 2
Hardness of feces: Slightly soft (number of animals) (guinea pigs; [11]): 0
Hardness of feces: Soft (number of animals) (guinea pigs; [11]): 3
Hardness of feces: Muddy (number of animals) (guinea pigs; [12]): 1
Hardness of feces: Normal (number of animals) (guinea pigs; [12]): 2
Hardness of feces: Slightly soft (number of animals) (guinea pigs; [12]): 2
Hardness of feces: Soft (number of animals) (guinea pigs; [12]): 3
Structure (SMILES): O[C@@H]1CO[C@H]2[C@@H]1OC[C@@H]2O [Isosorbitol]
Regression line IR-S vs IR-L: Y-intercept ([2]; listed as IB alone): 7.143 and 6.542
Regression line IR-S vs IR-L: slope ([2]; listed as IB alone): 1.003 and 1.011
IR-L (%) increase ratio of the length of Reissner's membrane [2]: 31.3 ± 36.5%
IR-S (%) increase ratio of the cross-sectional area of the scala media [2]: 40.9 ± 38.2%
Time until exertion of effect after the oral administration (endolymphatic space): ~6 h
